# From PMC3639963, “A New Class of Small Molecule Inhibitor of BMP Signaling” (PLoS ONE, 2013)
# Legend:
# Test in all cases: Nanosyn kinase profiling
# Assay type in all cases: biochemical
# Details in all cases: read-out: Percentage inhibition; for inhibition at 0.1 µM: 0.1 µM inhibitor; for inhibition at 1 µM: 1 µM inhibitor
# PKCθ = biological target: T1, PKCθ (Homo sapiens, UniProt Q04759)
# T1 construct: purchased Nanosyn (enzymatic panel); SGC in-house recombinant human kinases (DSF panel); Invitrogen (ALK1-6)
# T1 sequence (Q04759 whole entry): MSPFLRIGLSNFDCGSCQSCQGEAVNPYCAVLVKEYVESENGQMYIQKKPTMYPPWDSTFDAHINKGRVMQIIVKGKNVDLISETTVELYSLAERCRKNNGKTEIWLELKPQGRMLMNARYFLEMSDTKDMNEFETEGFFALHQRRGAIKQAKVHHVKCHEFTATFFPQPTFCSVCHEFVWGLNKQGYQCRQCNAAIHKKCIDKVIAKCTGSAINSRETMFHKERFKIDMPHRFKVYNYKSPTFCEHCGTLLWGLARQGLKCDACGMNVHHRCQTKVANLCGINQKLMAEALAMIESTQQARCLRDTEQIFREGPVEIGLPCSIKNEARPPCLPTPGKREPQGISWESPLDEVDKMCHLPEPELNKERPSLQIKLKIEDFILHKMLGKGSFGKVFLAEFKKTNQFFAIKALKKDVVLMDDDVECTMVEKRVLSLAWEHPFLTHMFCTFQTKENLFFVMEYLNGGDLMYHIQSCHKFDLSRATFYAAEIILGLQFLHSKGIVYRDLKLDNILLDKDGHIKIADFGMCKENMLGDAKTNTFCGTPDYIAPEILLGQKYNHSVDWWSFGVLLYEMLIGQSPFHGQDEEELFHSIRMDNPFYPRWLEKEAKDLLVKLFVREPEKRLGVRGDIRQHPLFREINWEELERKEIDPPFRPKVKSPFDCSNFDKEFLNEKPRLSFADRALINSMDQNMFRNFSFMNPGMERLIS
# Outline: (§1)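 Percent inhibition of each kinase was measured with the inhibitor at 0.1 µM and at 1 µM, as part of a 200-kinase human selectivity panel.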
# FLT4 = biological target: T2, FLT4 (Homo sapiens, UniProt P35916)
# T2 construct: purchased Nanosyn (enzymatic panel); SGC in-house recombinant human kinases (DSF panel); Invitrogen (ALK1-6)
# T2 sequence (P35916 25-1363): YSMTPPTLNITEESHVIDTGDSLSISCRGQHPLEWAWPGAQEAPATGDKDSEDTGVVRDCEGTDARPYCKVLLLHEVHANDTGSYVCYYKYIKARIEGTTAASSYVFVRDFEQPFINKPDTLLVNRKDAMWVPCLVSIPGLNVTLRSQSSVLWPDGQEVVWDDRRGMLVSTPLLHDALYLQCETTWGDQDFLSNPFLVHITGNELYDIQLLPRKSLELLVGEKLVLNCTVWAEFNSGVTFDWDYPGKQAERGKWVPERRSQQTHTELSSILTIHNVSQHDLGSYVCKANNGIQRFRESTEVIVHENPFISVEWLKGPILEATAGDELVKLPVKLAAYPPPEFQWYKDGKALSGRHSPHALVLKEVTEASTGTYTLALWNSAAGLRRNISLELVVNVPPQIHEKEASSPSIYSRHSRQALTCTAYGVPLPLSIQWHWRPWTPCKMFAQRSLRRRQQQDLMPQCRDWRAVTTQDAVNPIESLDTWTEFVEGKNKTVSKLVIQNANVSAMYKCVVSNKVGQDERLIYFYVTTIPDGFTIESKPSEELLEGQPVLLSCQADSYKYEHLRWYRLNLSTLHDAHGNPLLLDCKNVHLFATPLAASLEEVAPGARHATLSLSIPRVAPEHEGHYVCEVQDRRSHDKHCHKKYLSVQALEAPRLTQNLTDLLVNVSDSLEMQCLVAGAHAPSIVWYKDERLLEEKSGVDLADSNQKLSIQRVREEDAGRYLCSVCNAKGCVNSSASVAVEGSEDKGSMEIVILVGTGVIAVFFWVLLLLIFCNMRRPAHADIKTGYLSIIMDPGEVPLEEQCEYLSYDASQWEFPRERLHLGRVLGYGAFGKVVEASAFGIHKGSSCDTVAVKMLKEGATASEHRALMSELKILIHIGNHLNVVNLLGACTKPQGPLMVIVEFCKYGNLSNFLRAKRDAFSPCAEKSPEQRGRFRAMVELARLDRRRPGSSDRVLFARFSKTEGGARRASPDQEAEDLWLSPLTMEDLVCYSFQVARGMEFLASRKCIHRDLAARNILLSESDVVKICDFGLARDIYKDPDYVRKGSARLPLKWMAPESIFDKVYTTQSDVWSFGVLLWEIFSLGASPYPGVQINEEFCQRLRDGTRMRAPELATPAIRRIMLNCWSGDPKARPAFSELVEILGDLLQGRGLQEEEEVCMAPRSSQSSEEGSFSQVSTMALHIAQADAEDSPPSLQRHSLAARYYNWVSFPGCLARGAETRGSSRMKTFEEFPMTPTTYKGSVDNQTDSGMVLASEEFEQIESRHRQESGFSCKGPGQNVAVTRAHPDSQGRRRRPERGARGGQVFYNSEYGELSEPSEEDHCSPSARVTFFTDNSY
# Outline: as §1
# DCAMKL2 = biological target: T3, DCAMKL2 (Homo sapiens, UniProt Q8N568)
# T3 construct: purchased Nanosyn (enzymatic panel); SGC in-house recombinant human kinases (DSF panel); Invitrogen (ALK1-6)
# T3 sequence (Q8N568 1-766): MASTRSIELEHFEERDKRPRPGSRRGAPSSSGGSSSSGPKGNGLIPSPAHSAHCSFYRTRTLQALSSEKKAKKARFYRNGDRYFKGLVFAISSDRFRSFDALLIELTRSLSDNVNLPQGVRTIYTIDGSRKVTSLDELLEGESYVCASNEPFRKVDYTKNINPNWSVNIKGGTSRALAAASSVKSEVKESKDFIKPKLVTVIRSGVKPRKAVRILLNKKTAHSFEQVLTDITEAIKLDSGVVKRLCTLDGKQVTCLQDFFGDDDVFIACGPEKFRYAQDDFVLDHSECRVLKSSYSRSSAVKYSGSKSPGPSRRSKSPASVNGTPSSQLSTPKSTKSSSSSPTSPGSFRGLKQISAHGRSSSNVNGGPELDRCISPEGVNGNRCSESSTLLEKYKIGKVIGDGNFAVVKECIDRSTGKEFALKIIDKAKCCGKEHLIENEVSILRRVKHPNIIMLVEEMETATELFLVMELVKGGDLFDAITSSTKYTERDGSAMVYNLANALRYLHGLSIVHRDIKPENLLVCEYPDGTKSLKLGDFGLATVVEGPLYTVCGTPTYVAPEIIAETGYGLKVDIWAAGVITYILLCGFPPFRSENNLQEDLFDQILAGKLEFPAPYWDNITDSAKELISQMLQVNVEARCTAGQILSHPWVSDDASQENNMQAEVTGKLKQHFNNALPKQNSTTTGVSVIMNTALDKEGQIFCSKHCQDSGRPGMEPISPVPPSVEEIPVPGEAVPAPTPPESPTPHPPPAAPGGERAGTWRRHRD
# Outline: as §1
# PTK5 = biological target: T4, PTK5 (Homo sapiens, UniProt P42685)
# T4 construct: purchased Nanosyn (enzymatic panel); SGC in-house recombinant human kinases (DSF panel); Invitrogen (ALK1-6)
# T4 sequence (P42685 whole entry): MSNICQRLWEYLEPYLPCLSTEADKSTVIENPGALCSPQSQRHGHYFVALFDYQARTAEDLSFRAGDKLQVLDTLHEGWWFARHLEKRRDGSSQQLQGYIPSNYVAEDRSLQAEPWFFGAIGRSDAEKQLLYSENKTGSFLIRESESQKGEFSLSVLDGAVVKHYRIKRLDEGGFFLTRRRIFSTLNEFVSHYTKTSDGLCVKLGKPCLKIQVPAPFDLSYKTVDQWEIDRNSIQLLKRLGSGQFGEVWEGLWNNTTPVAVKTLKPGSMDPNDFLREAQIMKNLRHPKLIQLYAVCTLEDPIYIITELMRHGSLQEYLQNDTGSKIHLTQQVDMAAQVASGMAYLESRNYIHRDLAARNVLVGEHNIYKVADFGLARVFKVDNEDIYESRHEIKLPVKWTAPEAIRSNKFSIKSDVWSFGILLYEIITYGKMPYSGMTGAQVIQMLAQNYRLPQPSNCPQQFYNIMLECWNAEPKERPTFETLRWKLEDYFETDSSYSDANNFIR
# Outline: as §1
# JAK3 = biological target: T5, JAK3 (Homo sapiens, UniProt P52333)
# T5 construct: purchased Nanosyn (enzymatic panel); SGC in-house recombinant human kinases (DSF panel); Invitrogen (ALK1-6)
# T5 sequence (P52333 1-1124): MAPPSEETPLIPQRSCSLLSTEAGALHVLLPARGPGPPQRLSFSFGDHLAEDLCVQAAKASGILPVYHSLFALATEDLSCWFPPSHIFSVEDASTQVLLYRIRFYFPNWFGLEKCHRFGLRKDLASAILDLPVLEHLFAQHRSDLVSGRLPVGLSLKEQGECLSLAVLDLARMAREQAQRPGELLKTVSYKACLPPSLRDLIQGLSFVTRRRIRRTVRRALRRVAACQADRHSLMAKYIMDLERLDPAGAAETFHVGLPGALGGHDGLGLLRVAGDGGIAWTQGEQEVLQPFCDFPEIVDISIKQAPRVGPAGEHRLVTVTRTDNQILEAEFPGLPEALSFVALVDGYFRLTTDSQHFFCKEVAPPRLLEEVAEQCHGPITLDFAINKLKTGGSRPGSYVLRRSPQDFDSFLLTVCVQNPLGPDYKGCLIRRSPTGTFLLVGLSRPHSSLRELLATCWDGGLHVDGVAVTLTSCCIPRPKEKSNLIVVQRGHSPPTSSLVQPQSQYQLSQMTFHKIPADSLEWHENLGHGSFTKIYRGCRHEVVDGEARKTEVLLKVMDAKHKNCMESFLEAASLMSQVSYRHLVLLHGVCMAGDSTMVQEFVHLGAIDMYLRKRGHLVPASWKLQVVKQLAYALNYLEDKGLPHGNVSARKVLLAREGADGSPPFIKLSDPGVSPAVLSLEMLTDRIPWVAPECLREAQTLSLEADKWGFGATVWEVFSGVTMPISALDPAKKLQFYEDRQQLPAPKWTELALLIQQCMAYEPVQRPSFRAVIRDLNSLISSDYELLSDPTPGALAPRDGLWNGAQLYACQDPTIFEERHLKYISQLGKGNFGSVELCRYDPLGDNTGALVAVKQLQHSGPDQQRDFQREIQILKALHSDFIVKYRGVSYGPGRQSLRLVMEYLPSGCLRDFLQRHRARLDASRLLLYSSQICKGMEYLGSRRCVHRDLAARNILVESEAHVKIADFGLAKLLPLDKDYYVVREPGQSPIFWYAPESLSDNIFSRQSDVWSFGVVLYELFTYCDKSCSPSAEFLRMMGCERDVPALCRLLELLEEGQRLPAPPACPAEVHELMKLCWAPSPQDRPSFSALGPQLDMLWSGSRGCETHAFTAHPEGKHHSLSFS
# Outline: as §1
# MARK1 = biological target: T6, MARK1 (Homo sapiens, UniProt Q9P0L2)
# T6 construct: purchased Nanosyn (enzymatic panel); SGC in-house recombinant human kinases (DSF panel); Invitrogen (ALK1-6)
# T6 sequence (Q9P0L2 whole entry): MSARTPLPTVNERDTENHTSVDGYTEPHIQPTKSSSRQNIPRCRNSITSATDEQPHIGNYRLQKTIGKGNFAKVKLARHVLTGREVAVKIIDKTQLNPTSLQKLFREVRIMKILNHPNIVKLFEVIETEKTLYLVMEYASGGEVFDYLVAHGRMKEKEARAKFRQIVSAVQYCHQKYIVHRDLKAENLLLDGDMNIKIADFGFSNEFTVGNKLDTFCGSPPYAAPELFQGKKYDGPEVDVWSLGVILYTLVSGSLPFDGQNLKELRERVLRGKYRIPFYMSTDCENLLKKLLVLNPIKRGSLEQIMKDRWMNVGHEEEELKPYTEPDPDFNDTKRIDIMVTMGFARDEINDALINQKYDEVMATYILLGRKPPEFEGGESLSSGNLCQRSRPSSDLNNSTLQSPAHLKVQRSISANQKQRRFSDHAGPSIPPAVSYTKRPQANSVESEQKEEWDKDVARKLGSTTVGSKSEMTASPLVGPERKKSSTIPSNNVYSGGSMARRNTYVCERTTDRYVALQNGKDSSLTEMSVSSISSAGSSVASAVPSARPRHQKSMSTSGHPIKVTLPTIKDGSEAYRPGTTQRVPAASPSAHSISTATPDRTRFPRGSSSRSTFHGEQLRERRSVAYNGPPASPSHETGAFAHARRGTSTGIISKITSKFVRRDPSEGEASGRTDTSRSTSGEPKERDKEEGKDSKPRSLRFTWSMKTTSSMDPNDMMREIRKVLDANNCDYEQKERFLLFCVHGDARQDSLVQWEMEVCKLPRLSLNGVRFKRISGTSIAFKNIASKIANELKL
# Outline: as §1
SMILES,inhibition at 0.1 µM (PKCθ) [%],inhibition at 1 µM (PKCθ) [%],inhibition at 0.1 µM (FLT4) [%],inhibition at 1 µM (FLT4) [%],inhibition at 0.1 µM (DCAMKL2) [%],inhibition at 1 µM (DCAMKL2) [%],inhibition at 0.1 µM (PTK5) [%],inhibition at 1 µM (PTK5) [%],inhibition at 0.1 µM (JAK3) [%],inhibition at 1 µM (JAK3) [%],inhibition at 0.1 µM (MARK1) [%],inhibition at 1 µM (MARK1) [%]
"COc1cc(-c2cc(-c3cccc(O)c3)cnc2N)cc(OC)c1OC [K02288, 3-[6-amino-5-(3,4,5-trimethoxy-phenyl)-pyridin-3-yl]-phenol]",0,0.1,0.6,1.4,-2,2.3,2.2,22,5.6,2.3,1.3,4.5
c1ccc2c(-c3cnn4cc(-c5ccc(N6CCNCC6)cc5)cnc34)ccnc2c1 [LDN-193189],1.4,1.3,3.4,13,0.8,3.4,4.1,14,0,0.1,13,62
